The source made the active and inactive calls. No cut-off for these calls is given here.
Assays:
[1] = system: Coxsackievirus A16; experiment: Antiviral activity against Coxsackievirus A16 TA271 infected in human RD cells assessed as inhibition of virus-induced cytopathic effect preincubated with viral suspension for 2 hrs followed by cell addition and measured after 24 hrs by CCK-8 assay; assay type: functional, cell-based
[2] = system: Coxsackievirus A16; experiment: Antiviral activity against Coxsackievirus A16 TA271 infected in RD cells at preinfection stage assessed as cell detachment at 0.08 uM/L preincubated with cells for 3 hrs followed by viral infection and measured after 1 hr by inverted microscopic analysis; assay type: functional, cell-based
[3] = system: Coxsackievirus A16; experiment: (§1) Antiviral activity against Coxsackievirus A16 TA271 infected in RD cells at replication stage assessed as cell fragmentation at 0.08 uM/L 1 hr post-infection viral inoculum was removed and cells incubated with medium containing compound and measured after 5 hrs by inverted microscopic analysis; assay type: functional, cell-based
[4] = system: Coxsackievirus A16; experiment: as §1, with “increase in intracytoplasmic granules” for “cell fragmentation”; assay type: functional, cell-based
[5] = system: Coxsackievirus A16; experiment: Antiviral activity against Coxsackievirus A16 TA271 infected in RD cells assessed as effect on viral load at release stage at 0.08 uM/L preincubated with cells for 1 hr followed by replacement of fresh medium containing compounds for 16 hrs and measured after 48 hrs post infection by RT-PCR analysis; assay type: functional, cell-based
[6] = system: Coxsackievirus A16; experiment: Antiviral activity against Coxsackievirus A16 TA271 infected in ICR mouse assessed as reduction in lesions in heart at 2 mg/kg, im after 5 days post infection by H and E staining based histopathological analysis; assay type: functional, organism-based
[7] = system: Coxsackievirus A16; experiment: Antiviral activity against Coxsackievirus A16 TA271 infected in ICR mouse assessed as reduction in inflammatory cell infiltration in hind limb muscle at 2 mg/kg, im after 5 days post infection by H and E staining based histopathological analysis; assay type: functional, organism-based
[8] = system: Coxsackievirus A16; experiment: Antiviral activity against Coxsackievirus A16 TA271 infected in ICR mouse assessed as mild alveolar wall thickening in hind limb muscle at 2 mg/kg, im after 5 days post infection by H and E staining based histopathological analysis; assay type: functional, organism-based
[9] = system: Mus musculus; experiment: Effect on IL-6 level in ICR mouse at 2 mg/kg, administered intramuscularly by ELISA; assay type: functional, organism-based

In the case of `CC(=O)OC(CC=C(C)C)C1=CC(=O)c2c(O)ccc(O)c2C1=O` (stereo not given), the Activity [1] is reported as “Dose-dependent effect”, the EC50 ([1]; Enterovirus A) is reported as 40 nM and the Activity [2] is reported as “inactive”. The Activity [3] was “inactive”, the Activity [4] was “inactive” and the Activity [5] was “inactive”. The Activity [6] was “Active”, the Activity [7] was “Active” and the Activity [8] was “Active”. For the same compound, the Activity [9] was “inactive”.
